Test results as given in patent US20140182011A1, “Methods Using Acyl-Coenzyme A-Binding Proteins to Enchance Drought Tolerance in Genetically Modified Plants” (The University of Hong Kong, priority 2011, published 2014).

What was measured:
[1] = system: Arabidopsis seeds; test: Seed germination with ABA treatment; type: in vivo
Protocol: To test ABA sensitivity at germination, over 200 seeds per experiment were sown on MS medium in the presence or absence of […] (Sigma-Aldrich, St Louis, Mo., USA). After 2 d at 4° C., seeds were germinated and grown under 16-hour-light (23° C.)/8-hour-dark (21° C.) cycles. Germination was examined daily with a microscope (Leica MZ6; Leica, Solms, Germany), and seedlings were photographed after 7 d. For post-germination growth assays, seeds were germinated on MS medium for 4 d, followed by transfer to MS medium or MS medium supplemented with […] for 7 d before photography and root measurements.

[2] = system: ACBP2pro:GUS; test: Histochemical GUS assay during germination; type: in vivo, Arabidopsis; conditions: ABA treatment
Protocol: Histochemical GUS assays were carried out using 5 bromo-4-chloro-3-indolyl-b-D-glucuronide (X-Glue) according to Liu et al., Plant Cell, 16: 5-20 (2004). Plant samples were immersed and vacuum filtrated in the GUS staining solution for 30 min (100 mM sodium phosphate buffer, pH 7.0, 0.1% Triton X-100, 2 mM potassium ferricyanide, 2 mM potassium ferrocyanide, 1 mg/mL 5 bromo-4-chloro-3-indolyl-β-D-glucuronide), incubated and observed over a period ranging from 3 to 16 h at 37° C. Subsequently, samples were cleared in 70% ethanol and photographed.

[3] = system: ACBP2; test: qRT-PCR of ACBP2 expression after ABA treatment; type: in vivo, Arabidopsis; conditions: 12-day-old seedlings, ABA (100 µM), continuous white light
Protocol: TRIzol® reagent was also used for RNA extraction of 12-day-old Arabidopsis seedlings subject to treatment by 100 μM ABA or drought for the various times (0, 1, 3, 6 and 24 h) under continuous white light. First-strand was synthesized using the Superscript First-Strand Synthesis System (Invitrogen). QRT-PCR was performed using StepOne Plus (Applied Biosystems) and FastStart Universal SYBR Green Master (Roche). Transcript changes were analyzed according to Schmittgen and Livak (Nat. Protoc. 3:1101-1108 (2008) from three independent experiments.
To determine the effect of ABA treatment on ACBP2 expression, the expression of ACBP2 was examined by Real-time quantitative PCR (qRT-PCR) using primers ML1122 and ML1123 (SEQ ID NOs: 1 and 2) in 12-day-old seedlings before and after ABA treatment under continuous white light. qRT-PCR was performed using StepOne Plus (Applied Biosystems) and FastStart Universal SYBR Green Master (Roche). Transcript changes were analyzed according to Schmittgen and Livak (Nat. Protoc. 3: 1101-1108 (2008) from three independent experiments.

For `CC1=CC(=O)CC(C)(C)[C@@]1(O)/C=C/C(C)=C\C(=O)O` [ABA, Abscisic acid], the seed germination [1] was “suppressed germination”, the “GUS expression as germination progressed” value [2] was “retained GUS expression” and the “ACBP2 expression (qRT-PCR)” value [3] was “significant induction”.
